Laboratory results: patent US20070161550A1, “Antiviral compositions which inhibit paramyxovirus infection” (priority 2003, published 2007)

Experiments:
[1] = test system: chemotaxis; conditions: cited from earlier work
[2] = test system: cp-RSV; assay: Inhibition of infectivity of cp-RSV, HEp-2 plaque assay; type: cell-based, respiratory syncytial virus (RSV); conditions: Table 15 Experiment 1; strain cp-RSV; 10 μg/ml, treated 1 h before infection
Procedure: (§1) Inhibition of virus infectivity in vitro. HEp-2 cell monolayers were grown in 96-well tissue culture plates (Falcon, Becton Dickson and Co.; Franklin Lakes, N.J.) with complete medium. The monolayers were pre-treated for 1 hour at 4° C. or 37° C. in triplicate wells with the indicated amounts of recombinant chemokine or anti-chemokine receptor antibody. After removal of chemokine or antibody, the monolayers were infected 1 hour at the same temperature with the denoted wild type or mutant RSV strain and then overlaid with 2% Sephadex (Amersham Biosciences; Piscataway, N.J.). Anti-viral activity was also assessed 1 hour after the cells were infected, or following simultaneous exposure of the monolayers to virus in a 1:1 mixture with the indicated doses of chemokines or CCL5 peptides. The inhibitory properties of the anti-chemokine receptor antibodies were tested alone or in combination at doses ranging from 5 to 100 μg/ml culture medium.
(§2) Plaque assay. […] Bound antibody was detected using 0.05% 4-chloro-1-naphtol containing 0.1% H2O2 in PBS. After enumeration of plaques, the mean percent infectivity (±1 standard deviation of triplicate wells) was calculated relative to monolayers exposed to virus in culture medium alone without chemokine or anti-chemokine receptor antibody.

[3] = test system: HEp-2 cells; assay: Binding of biotinylated CCL5 peptides to HEp-2 cell monolayers (ELISA); parameters: species or system human; conditions: FIG. 3, viable HEp-2 cells at 4° C.
Procedure: Interaction of CCL5 peptides with HEp-2 cells. An ELISA was used to assess the relative binding of synthetic peptides to HEp-2 cell monolayers. In brief, 96-well plates (Falcon) were seeded with 3×10^4 HEp-2 cells per well in 0.2 ml of complete medium. After overnight incubation (37° C., 5% CO2), the monolayers were cooled on ice for approximately 15 minutes. The biotinylated peptides were added to duplicate wells in ascending doses from 0.49 μg to 500 μg per ml DMEM (supplemented with 1% FBS, 2% penicillin/streptomycin, and 2 mM L-glutamine) and incubated at 4° C. for 1 hour. The monolayers were then fixed (20 minutes at RT) with 80% methanol (J T Baker; Phillipsburg, N.J.). […] Thereafter, the monolayers were incubated (1 hour at RT) with streptavidin-HRP (Zymed; San Francisco, Calif.). The wells were developed with TMB One-Step Substrate Solution (DAKO; Carpinteria, Calif.). Optical density was determined (450 nm, reference at 550 nm) with a Molecular Devices Versamax microplate reader (Sunnyvale, Calif.).

[4] = test system: RSV A2; assay: Inhibition of RSV infectivity in vitro, plaque assay on HEp-2 cell monolayers; type: cell-based, respiratory syncytial virus (RSV)
Procedure: as §1
Plaque assay. Virus plaques were visualized as previously described (Hancock et al. 1996) using anti-F protein (L4) mAb (Paradiso et al., 1991; Walsh and Hruska, 1983). Thereafter, cells were rinsed with blotto blocking agent (PBS, 5% powdered milk) and incubated with horseradish peroxidase-conjugated goat anti-mouse IgG (Kirkegaard and Perry Laboratories, Inc.; Gaithersburg, Md.). Bound antibody was detected using 0.05% 4-chloro-1-naphtol containing 0.1% H2O2 in PBS. After enumeration of plaques, the mean percent infectivity (±1 standard deviation of triplicate wells) was calculated relative to monolayers exposed to virus in culture medium alone without chemokine or anti-chemokine receptor antibody.

[5] = test system: cp32/D1; assay: Inhibition of infectivity of mutant RSV strain lacking SH and G proteins, HEp-2 plaque assay; type: cell-based, respiratory syncytial virus (RSV); conditions: Table 15 Experiment 2, 10 μg/ml, treated 1 h before infection, 5 days
Procedure: (§3) Virus stocks. Wild type RSV strains A2 and B1 (Wright et al., 1973) and mutant RSV strains cpts248/404 (Ackerlind et al., 1988), rA2 cpts248/404ASH (Crowe et al., 1994) and cp32/D1, deficient in SH and G genes (nucleotides 4064-5462) (Karron et al., 1997), were propagated as previously described (Hancock et al., 1996) in HEp-2 cells (ATCC CCL 23) cultured in complete medium (DMEM supplemented with 2 mM L-glutamine, 2% penicillin/streptomycin and 10% (V/V) FBS, 37° C., 5% CO2). The cp32/D1 mutant was isolated from the B1 strain using methodologies previously described for cp52 (Crowe et al., 1996; Karron et al., 1997). A recombinant RSV, (rA2 cpΔG118) genetically truncated at amino acid 117 of G protein was also used in the investigation. […]
(§4) Inhibition of virus infectivity in vitro. […] Anti-viral activity was also assessed 1 hour after the cells were infected, or following simultaneous exposure of the monolayers to virus in a 1:1 mixture with the indicated doses of chemokines or CCL5 peptides. […]
as §2, with “antibody. […]” for “antibody.”

[6] = test system: rA2cpΔ118; assay: Inhibition of infectivity of RSV with truncated G protein, HEp-2 plaque assay; type: cell-based, respiratory syncytial virus (RSV); conditions: Table 15 Experiment 1; strain rA2cpΔ118; 10 μg/ml, treated 1 h before infection; 5 days
Procedure: as §3, §4
as §2, with “antibody. […]” for “antibody.”

[7] = test system: RSV B1; assay: Inhibition of infectivity of wild type RSV B1, HEp-2 plaque assay; type: cell-based, respiratory syncytial virus (RSV); conditions: Table 15 Experiment 2; strain B1; 10 μg/ml, treated 1 h before infection; 5 days
Procedure: as §3, §4, §2

[8] = test system: cpts248/404; assay: Inhibition of infectivity of mutant RSV strain 248/404, HEp-2 plaque assay; type: cell-based, respiratory syncytial virus (RSV); conditions: treated 1 h before infection, 5 days
Procedure: (§5) Virus stocks. Wild type RSV strains A2 and B1 (Wright et al., 1973) and mutant RSV strains cpts248/404 (Ackerlind et al., 1988), rA2 cpts248/404ASH (Crowe et al., 1994) and cp32/D1, deficient in SH and G genes (nucleotides 4064-5462) (Karron et al., 1997), were propagated as previously described (Hancock et al., 1996) in HEp-2 cells (ATCC CCL 23) cultured in complete medium (DMEM supplemented with 2 mM L-glutamine, 2% penicillin/streptomycin and 10% (V/V) FBS, 37° C., 5% CO2). The cp32/D1 mutant was isolated from the B1 strain using methodologies previously described for cp52 (Crowe et al., 1996; Karron et al., 1997). A recombinant RSV, (rA2 cpΔG118) genetically truncated at amino acid 117 of G protein was also used in the investigation. All virus stocks were prepared from cell lysates clarified by low speed (200 g) centrifugation 15 minutes at 4° C.
as §1, with “The inhibitory properties of the anti-chemokine receptor antibodies were tested alone or in combination at doses ranging from 5 to 100 μg/ml culture medium.” left out
as §2

[9] = test system: RSV; assay: Inhibition of RSV infection of A549 monolayers; type: cell-based, respiratory syncytial virus (RSV); conditions: prior treatment of A549 monolayers; data not shown
[10] = test system: rA2 cpts248/404ΔSH; assay: Inhibition of infectivity of mutant RSV strain lacking SH protein, HEp-2 plaque assay; type: cell-based, respiratory syncytial virus (RSV); conditions: strain 248/404ΔSH, 10 μg/ml, treated 1 h before infection, 5 days
Procedure: as §5
as §1, with “The inhibitory properties of the anti-chemokine receptor antibodies were tested alone or in combination at doses ranging from 5 to 100 μg/ml culture medium.” left out
as §2, with “antibody. […]” for “antibody.”

[11] = Table 15 Experiment 1, strain A2, 10 μg/ml, treated 1 h before infection, 3 days
[12] = Table 15 Experiment 1, 10 μg/ml

## Ac-YFYEKIHARPLPRAIYAFC-NH2 [SEQ ID NO:19, retroinverted peptide of CCL5 residues 11-29 in reverse order]
[1]
  effect on chemotaxis (in words): antagonized chemotaxis

## CCL5: recombinant human chemokine CCL5 (RANTES), full length polypeptide of SEQ ID NO:1
[2]
  Percent Infectivity: 64%
[3]
  binding to the epithelial cell monolayer (in words): readily bound to the epithelial cell monolayer
[4]; Table 10, 1 μg/ml, exposed 1 hour before infection, plaques after 3 days
  Percent Infectivity: 73.6 ± 20.6%
[4]; Table 10, 5 μg/ml, exposed 1 hour before infection, plaques after 3 days
  Percent Infectivity: 25.0 ± 7.2%
[4]; Table 10, 10 μg/ml, exposed 1 hour before infection, plaques after 3 days, relative to control wells (100%)
  Percent Infectivity: 29.2 ± 16.7%
[4]; Table 10, 10 μg/ml, exposed 1 hour before infection, plaques after 3 days, relative to control wells (100%), listed as rCCL5
  Percent Infectivity: approximately 30%
[4]; Table 11, 1 μg/ml, exposed 1 hour before infection, plaques after 3 days
  Percent Infectivity: 101.0 ± 4.0%
[4]; Table 11, 5 μg/ml, exposed 1 hour before infection, plaques after 3 days
  Percent Infectivity: 42.0 ± 3.0%
[4]; Table 11, 10 μg/ml, exposed 1 hour before infection, plaques after 3 days
  Percent Infectivity: 16.0 ± 8.0%
[4]; Table 11, 10 μg/ml, exposed 1 hour before infection, plaques after 3 days, listed as rCCL5
  Percent Infectivity: ~20%
[4]; Table 12, 10 μg/ml, 1 hour after removal of RSV A2 (POST)
  Percent Infectivity: 101 ± 12%
[4]; Table 12, 10 μg/ml, 1 hour prior to infection (PRE)
  Percent Infectivity: 22 ± 11%
[4]; Table 13, 10 μg/ml, 1 hour prior to infection (PRE)
  Percent Infectivity: 17
[4]; Table 13, 10 μg/ml, CCL5 denatured by heat (HEAT)
  Percent Infectivity: 75
[4]; Table 13, 10 μg/ml, simultaneously admixed with RSV (SIM)
  Percent Infectivity: 33
[4]; Table 14, 5 μg, pre-treated 1 hour at 4° C.
  Percent Infectivity: 37%
[4]; Table 14, 5 μg, pre-treated 1 hour at 37° C.
  Percent Infectivity: 41%
[4]; Table 14, 10 μg, pre-treated 1 hour at 4° C.
  Percent Infectivity: 23%
[4]; Table 14, 10 μg, pre-treated 1 hour at 37° C.
  Percent Infectivity: 4%
[4]; Table 14, 20 μg, pre-treated 1 hour at 4° C.
  Percent Infectivity: 14%
[4]; Table 14, 20 μg, pre-treated 1 hour at 4° C., listed as rCCL5
  Percent Infectivity: approximately 14%
[4]; Table 14, 20 μg, pre-treated 1 hour at 37° C.
  Percent Infectivity: 16%
[4]; [11]
  Percent Infectivity: 33%
[4]; Table 15 Experiment 2, strain A2, 10 μg/ml, treated 1 h before infection, 3 days
  Percent Infectivity: 28%
[4]; prior exposure (1 hour) of HEp-2 cell monolayers, read-out: median inhibitory concentration (IC50)
  IC50: 726 nM
[5]
  Percent Infectivity: 41%
[6]
  Percent Infectivity: 26%
[7]
  Percent Infectivity: 24%
[8]; [12]
  Percent Infectivity: 28%
[8]; Table 15 Experiment 2, 10 μg/ml
  Percent Infectivity: 25%
[9]
  inhibition of infection with RSV (in words): inhibited infection with RSV
[10]; Table 15 Experiment 1
  Percent Infectivity: 34%
[10]; Table 15 Experiment 2
  Percent Infectivity: 13%

B1: met-CCL5: CCL5 of SEQ ID NO:1 with a methionine NH2-terminal to Ser1; inactive as chemokine agonist (protein, listed as Homo sapiens)
chain: MSPYSSDTTPCCFAYIARPLPRAHIKEYFYTSGKCSNPAVVFVTRKNRQVCANPEKKWVREYINSLEMS
modifications: N-terminal methionine
[2]
  Percent Infectivity: 64%
[4]; FIG. 1, 1.25 μg met-CCL5/ml, prior treatment
  infectivity, percent of control cells: approximately 80%
[4]; FIG. 1, 20 μg met-CCL5/ml, pre-treated one hour before infection
  infectivity, percent of control cells: approximately 25%
[4]; FIG. 1, doses of 0.313 or 0.156 μg met-CCL5/ml
  inhibition of infectivity (in words): not inhibitory
[4]; [11]
  Percent Infectivity: 31%
[6]
  Percent Infectivity: 41%
[8]; [12]
  Percent Infectivity: 26%
[10]; Table 15 Experiment 1
  Percent Infectivity: 32%
